Assay results: patent US8058433B2, “Crystalline pharmaceutical” (Abbott Laboratories, priority 2000, dated 2011)

Experiment: Hygroscopicity of the crystal form
Assay type: physicochemical
Conditions: unless maintained at about 0% relative humidity the form comprises greater than 0.5 molecules of water per molecule of lopinavir
Source text: The Type I hydrated crystal form of lopinavir comprising about 0.5 molecules of water per molecule of lopinavir is hygroscopic. Therefore, unless maintained under conditions of about 0% relative humidity, the Type I hydrated crystal form of lopinavir comprises greater than 0.5 molecules of water per molecule of lopinavir. If a Type I hydrated crystal form of lopinavir is dehydrated to below about 0.5 molecules of water per molecule of lopinavir, amorphous lopinavir is obtained.
The Type I crystal form of lopinavir comprising about 0.5 molecules of water per molecule of lopinavir has the powder X-ray diffraction pattern which appears in FIG. 1. The Type I crystal form of lopinavir comprising about 0.5 molecules of water per molecule of lopinavir has the solid state ^13C nuclear magnetic resonance spectrum, FT near infrared spectrum and FT mid infrared spectrum which appear in FIGS. 2, 3 and 4, respectively. The sample from which the infrared and nuclear magnetic resonance spectra were obtained may contain somewhat more than 0.5 molecules of water per molecule of lopinavir due to the hygroscopicity of the crystal form when the level of hydration is about 0.5 molecules of water per molecule of lopinavir.

With `Cc1cccc(C)c1OCC(=O)N[C@@H](Cc1ccccc1)[C@@H](O)C[C@H](Cc1ccccc1)NC(=O)[C@H](C(C)C)N1CCCNC1=O` the hygroscopicity was “hygroscopic”.
